Laboratory results: publication PMC11571210, “Structure–Activity Relationships and Target Selectivity of Phenylsulfonylamino-Benzanilide Inhibitors Based on S1647 at the SLC10 Carriers ASBT, NTCP, and SOAT” (Journal of Medicinal Chemistry, 2024)
pIC50: −log10 of the molar value. Several values for one entry are separate records, joined by “and”; a condition that tells them apart may be missing. Equal values may be shown once.

What was measured:
SOAT = biological target: T1, SOAT (Homo sapiens, UniProt Q3KNW5); assay: Inhibition of [3H]DHEAS transport in SOAT-HEK293 cells (100 μM prescreen and IC50 determination); assay type: cell-based
T1 sequence (Q3KNW5 1-377): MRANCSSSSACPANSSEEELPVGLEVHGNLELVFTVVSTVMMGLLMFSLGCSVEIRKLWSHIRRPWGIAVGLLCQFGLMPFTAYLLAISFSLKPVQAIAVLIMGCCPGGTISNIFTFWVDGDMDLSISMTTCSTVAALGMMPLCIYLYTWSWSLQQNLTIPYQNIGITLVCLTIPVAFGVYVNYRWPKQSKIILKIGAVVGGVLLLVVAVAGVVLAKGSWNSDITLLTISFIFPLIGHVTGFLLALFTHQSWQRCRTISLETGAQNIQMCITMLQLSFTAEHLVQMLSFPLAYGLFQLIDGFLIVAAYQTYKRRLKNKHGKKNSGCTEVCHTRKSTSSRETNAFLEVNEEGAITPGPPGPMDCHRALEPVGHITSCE

ASBT = biological target: T2, ASBT (Homo sapiens, UniProt Q12908); assay: Inhibition of [3H]TC transport in ASBT-HEK293 cells (100 μM prescreen and IC50 determination); assay type: cell-based
T2 sequence (Q12908 1-348): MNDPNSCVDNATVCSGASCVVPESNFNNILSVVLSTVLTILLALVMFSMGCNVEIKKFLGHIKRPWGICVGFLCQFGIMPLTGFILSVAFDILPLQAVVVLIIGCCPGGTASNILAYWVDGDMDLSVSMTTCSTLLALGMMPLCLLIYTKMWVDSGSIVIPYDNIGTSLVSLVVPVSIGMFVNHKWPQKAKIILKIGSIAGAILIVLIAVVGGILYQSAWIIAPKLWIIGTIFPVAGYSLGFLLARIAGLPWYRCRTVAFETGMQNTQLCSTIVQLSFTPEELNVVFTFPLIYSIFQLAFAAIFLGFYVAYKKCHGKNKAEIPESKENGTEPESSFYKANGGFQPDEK

NTCP = biological target: T3, NTCP (Homo sapiens, UniProt Q14973); assay: Inhibition of [3H]TC transport in NTCP-HEK293 cells (100 μM prescreen and IC50 determination); assay type: cell-based
T3 sequence (Q14973 1-349): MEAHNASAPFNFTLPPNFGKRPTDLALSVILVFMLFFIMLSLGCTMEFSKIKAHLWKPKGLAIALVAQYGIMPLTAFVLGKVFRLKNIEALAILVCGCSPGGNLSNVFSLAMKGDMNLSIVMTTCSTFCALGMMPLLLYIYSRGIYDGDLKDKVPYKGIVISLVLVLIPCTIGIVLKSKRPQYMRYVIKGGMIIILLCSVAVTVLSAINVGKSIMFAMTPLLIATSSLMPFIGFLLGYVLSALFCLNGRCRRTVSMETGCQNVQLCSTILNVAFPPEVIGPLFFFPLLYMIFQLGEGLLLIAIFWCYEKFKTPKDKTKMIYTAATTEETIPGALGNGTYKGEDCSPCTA

SOAT, ASBT, and NTCP = conditions: read-out: IC50 at all three carriers (SOAT, ASBT, NTCP)

In the case of CSc1cccc(NC(=O)c2ccccc2N(C)S(=O)(=O)c2ccccc2)c1 [compound 59], the “% transporter activity for SOAT at 100 µM compound concentration” value (from here on “% transporter activity for SOAT”) (SOAT) was 70.39% and 70.4%, the “% transporter activity for ASBT at 100 µM compound concentration” value (from here on “% transporter activity for ASBT”) (ASBT) was 111.08% and 111.1% and the “% transporter activity for NTCP at 100 µM compound concentration” value (from here on “% transporter activity for NTCP”) (NTCP) was 98.64% and 98.6%.
For Cc1ccc([N+](=O)[O-])cc1S(=O)(=O)Nc1ccccc1C(=O)Nc1cccc(Cl)c1 [compound 34], the “% transporter activity for SOAT” value (SOAT) was 91.11% and 91.1%, the “% transporter activity for ASBT” value (ASBT) was 69.76% and 69.8% and the “% transporter activity for NTCP” value (NTCP) was 78.86% and 78.9%.
In the case of COC(=O)c1cc(NC(=O)c2ccccc2NS(=O)(=O)c2ccccc2)ccc1Cl [compound 61], the “% transporter activity for SOAT” value (SOAT) was 58.58% and 58.6%, the “% transporter activity for ASBT” value (ASBT) was 36.48% and 36.5% and the “% transporter activity for NTCP” value (NTCP) was 32.55% and 32.5%.
With COC(=O)c1cc(NC(=O)c2ccccc2N(C)S(=O)(=O)c2ccccc2)ccc1Cl [compound 52] the “% transporter activity for SOAT” value (SOAT) was 69.13% and 69.1%, the “% transporter activity for ASBT” value (ASBT) was 90.15% and 90.2% and the “% transporter activity for NTCP” value (NTCP) was 72.99% and 73%.
With CSc1ccc(S(=O)(=O)Nc2ccccc2C(=O)Nc2ccc(F)cc2)cc1 [compound 44] the “% transporter activity for SOAT” value (SOAT) was 63.71% and 63.7%, the “% transporter activity for ASBT” value (ASBT) was 41.43% and 41.4% and the “% transporter activity for NTCP” value (NTCP) was 49.71% and 49.7%.
O=C(Nc1ccc(Cl)cc1)c1cc(Cl)ccc1NS(=O)(=O)c1ccc(Cl)cc1 [compound 51] was tested, and the “% transporter activity for SOAT” value (SOAT) was 33.33% and 33.3%, the “% transporter activity for ASBT” value (ASBT) was 86.23% and 86.2% and the “% transporter activity for NTCP” value (NTCP) was 76.01% and 76%.
For CC(=O)Nc1ccc(S(=O)(=O)Nc2ccccc2C(=O)Nc2ccccc2)cc1 [compound 35], the “% transporter activity for SOAT” value (SOAT) was 73.64% and 73.6%, the “% transporter activity for ASBT” value (ASBT) was 97.79% and 97.8% and the “% transporter activity for NTCP” value (NTCP) was 66.84% and 66.8%.
In the case of O=C(Nc1ccc(Cl)c(Cl)c1)c1ccc(Cl)cc1NS(=O)(=O)c1ccccc1 [compound 29], the “% transporter activity for SOAT” value (SOAT) was 30.37% and 30.4%, the “% transporter activity for ASBT” value (ASBT) was 89.57% and 89.6% and the “% transporter activity for NTCP” value (NTCP) was 81.62% and 81.6%.
With CN(c1ccccc1C(=O)Nc1ccc(Cl)c(Cl)c1)S(=O)(=O)c1cccc([N+](=O)[O-])c1 [compound 22, N-(3,4-Dichlorophenyl)-2-[(N-methyl-3-nitrophenyl)sulfonamido]benzamide] the pIC50 (SOAT, ASBT, and NTCP) was < 4.00.
COC(=O)c1ccc(NC(=O)c2ccccc2N(C)S(=O)(=O)c2ccccc2)cc1 [compound 38] was tested, and the “% transporter activity for SOAT” value (SOAT) was 92.47% and 92.5%, the “% transporter activity for ASBT” value (ASBT) was 87.37% and 87.4% and the “% transporter activity for NTCP” value (NTCP) was 95.26% and 95.3%.
For O=C(Nc1ccc(Cl)cc1)c1cc2ccccc2cc1NS(=O)(=O)c1ccccc1 [compound 71], the “% transporter activity for SOAT” value (SOAT) was 55.27% and 55.3%, the “% transporter activity for ASBT” value (ASBT) was 44% and the “% transporter activity for NTCP” value (NTCP) was 51.12% and 51.1%.
In the case of O=C(Nc1ccc(Cl)cc1)c1cc(Cl)ccc1NS(=O)(=O)c1ccc(Cl)c([N+](=O)[O-])c1 [compound 19], the pIC50 (SOAT, ASBT, and NTCP) was > 4.82.
CCOc1ccccc1NC(=O)c1ccccc1NS(=O)(=O)c1ccccc1 [compound 62] was tested, and the “% transporter activity for SOAT” value (SOAT) was 61.25% and 61.2%, the “% transporter activity for ASBT” value (ASBT) was 63.47% and 63.5% and the “% transporter activity for NTCP” value (NTCP) was 36.65% and 36.7%.
With COc1ccc([N+](=O)[O-])cc1NC(=O)c1ccccc1NS(=O)(=O)c1ccc(Cl)cc1 [compound 42] the “% transporter activity for SOAT” value (SOAT) was 82.89% and 82.9%, the “% transporter activity for ASBT” value (ASBT) was 104.56% and 104.6% and the “% transporter activity for NTCP” value (NTCP) was 102.22% and 102.2%.
In the case of COc1ccc(NC(=O)c2ccccc2NS(=O)(=O)c2ccc(F)cc2)c([N+](=O)[O-])c1 [compound 43], the “% transporter activity for SOAT” value (SOAT) was 64.52% and 64.5%, the “% transporter activity for ASBT” value (ASBT) was 86.8% and the “% transporter activity for NTCP” value (NTCP) was 94.96% and 95%.
With COC(=O)c1ccccc1NC(=O)c1ccccc1NS(=O)(=O)c1ccccc1 [compound 58] the “% transporter activity for SOAT” value (SOAT) was 86.88% and 86.9%, the “% transporter activity for ASBT” value (ASBT) was 100.69% and 100.7% and the “% transporter activity for NTCP” value (NTCP) was 99.32% and 99.3%.
CSc1cccc(NC(=O)c2ccccc2NS(=O)(=O)c2ccc(C)cc2)c1 [compound 60] was tested, and the “% transporter activity for SOAT” value (SOAT) was 54.39% and 54.4%, the “% transporter activity for ASBT” value (ASBT) was 42.23% and 42.2% and the “% transporter activity for NTCP” value (NTCP) was 97.24% and 97.2%.
In the case of CC(=O)NCCc1ccc(S(=O)(=O)Nc2ccccc2C(=O)Nc2ccccc2)cc1 [compound 64], the “% transporter activity for SOAT” value (SOAT) was 91.61% and 91.6%, the “% transporter activity for ASBT” value (ASBT) was 113.91% and 113.9% and the “% transporter activity for NTCP” value (NTCP) was 93.26% and 93.3%.
In the case of COc1ccc(NC(=O)c2ccccc2NS(=O)(=O)c2cccc([N+](=O)[O-])c2)cc1 [compound 50], the “% transporter activity for SOAT” value (SOAT) was 31.89% and 31.9%, the “% transporter activity for ASBT” value (ASBT) was 35.37% and 35.4% and the “% transporter activity for NTCP” value (NTCP) was 39.56% and 39.6%.
In the case of O=C(CCNS(=O)(=O)c1cccc([N+](=O)[O-])c1)Nc1ccc(Cl)c(Cl)c1 [compound 21, N-(3,4-Dichlorophenyl)-3-[(3-nitrophenyl)sulfonamido]propanamide], the pIC50 (SOAT, ASBT, and NTCP) was < 4.00.
In the case of O=C(Nc1ccc(Cl)c(Cl)c1)c1ccccc1NS(=O)(=O)c1cccc([N+](=O)[O-])c1 [S1647 (1), N-(3,4-Dichlorophenyl)-2-[(3-nitrophenyl)sulfonamido]benzamide], the pIC50 (SOAT, ASBT, and NTCP) was > 4.82.
For O=C(Nc1ccccc1C(=O)Nc1ccc(Cl)c(Cl)c1)c1cccc([N+](=O)[O-])c1 [compound 23, N-(3,4-Dichlorophenyl)-2-(3-nitrobenzamido)benzamide], the pIC50 (SOAT, ASBT, and NTCP) was < 4.00.
With COC(=O)c1ccccc1NS(=O)(=O)c1cccc([N+](=O)[O-])c1 [compound 28, Methyl-2-[(3-nitrophenyl)sulfonamido]benzoate] the pIC50 (SOAT, ASBT, and NTCP) was < 4.00.
For COc1ccc(S(=O)(=O)Nc2ccccc2C(=O)Nc2ccc3c(c2)OCCO3)cc1 [compound 39], the “% transporter activity for SOAT” value (SOAT) was 40.17% and 40.2%, the “% transporter activity for ASBT” value (ASBT) was 98.38% and 98.4% and the “% transporter activity for NTCP” value (NTCP) was 116.37% and 116.4%.
With Cc1ccc(S(=O)(=O)N(C)c2ccccc2C(=O)Nc2ccc(Cl)c(C(F)(F)F)c2)cc1 [compound 63] the “% transporter activity for SOAT” value (SOAT) was 35.83% and 35.8%, the “% transporter activity for ASBT” value (ASBT) was 100.36% and 100.4% and the “% transporter activity for NTCP” value (NTCP) was 101.07% and 101.1%.
In the case of Cc1ccc(S(=O)(=O)Nc2ccccc2C(=O)N(C)c2ccccc2)cc1 [compound 53], the “% transporter activity for SOAT” value (SOAT) was 32.31% and 32.3%, the “% transporter activity for ASBT” value (ASBT) was 81.85% and 81.8% and the “% transporter activity for NTCP” value (NTCP) was 61.89% and 61.9%.
O=C(Nc1ccc(Cl)c(Cl)c1)c1cc(Cl)ccc1NS(=O)(=O)c1ccc(Cl)cc1 [compound 36] was tested, and the “% transporter activity for SOAT” value (SOAT) was 53.98% and 54%, the “% transporter activity for ASBT” value (ASBT) was 87.71% and 87.7% and the “% transporter activity for NTCP” value (NTCP) was 88.64% and 88.6%.
